Source: PMC12344693, “Human Milk Oligosaccharides Multivalently Presented on Defined Synthetic Neo-Glycoproteins Are Nanomolar Ligands of Tandem-Repeat Galectins” (Biomacromolecules, 2025)
Where “and” joins values, the source holds several entries; their conditions need not be identical. Identical values can stand only once. Like-named read-outs stand apart in the source and are kept apart here.

Assays:
Gal-8 = biological target: T1, Gal-8 (Homo sapiens, UniProt O00214); assay: competitive ELISA, inhibition of galectin binding to immobilized asialofetuin; settings: competitive ELISA vs immobilized ASF; 0.5 μM Gal-8; at least quadruplicate
T1 construct: Full-length recombinant human galectins (Gal-1, Gal-3, Gal-4, Gal-8, and Gal-9) for ELISA assays; made in house; host or cells: E. coli Rosetta 2(DE3)pLysS
T1 sequence (O00214 1-317): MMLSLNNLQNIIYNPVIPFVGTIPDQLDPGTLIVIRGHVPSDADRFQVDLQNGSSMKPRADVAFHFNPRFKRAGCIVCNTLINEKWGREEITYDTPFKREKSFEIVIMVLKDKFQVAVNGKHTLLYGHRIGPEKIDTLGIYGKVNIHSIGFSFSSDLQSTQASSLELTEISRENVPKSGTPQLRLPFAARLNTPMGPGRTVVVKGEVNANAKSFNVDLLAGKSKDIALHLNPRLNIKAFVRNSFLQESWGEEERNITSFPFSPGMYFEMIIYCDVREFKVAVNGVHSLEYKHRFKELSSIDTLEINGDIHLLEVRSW
Description: (§1) The inhibitory potential of the prepared glycan library and the respective multivalent neo-glycoproteins with Gal-1, -3, -4, -8, and -9 was evaluated using a competitive ELISA assay as described by Vašíček et al. Asialofetuin (ASF; 0.1 μM in PBS, 50 μL/well) was immobilized onto microtiter plates (Nunc Immuno Sorb, ThermoFisher Scientific, USA) overnight at 4 °C. Wells were subsequently washed three times with PBS containing 0.05%, v/v, Tween-20 (250 μL/wash). Each assay step was followed by a washing step to ensure the thorough removal of unbound reagents. Blocking was performed using 2%, w/v, BSA in PBS (250 μL/well) for 1 h at room temperature. Serial dilutions of the inhibitors prepared in EPBS buffer (PBS containing 2 mM EDTA) were incubated with a constant concentration of galectin (2.5 μM Gal-1, Gal-3, and Gal-4; 0.5 μM Gal-8 and Gal-9) for 2 h. […] Residual galectin bound to ASF was detected using the anti-His-tag antibody conjugated to horseradish peroxidase (Santa Cruz Biotechnology, 1:999 dilution in PBS). Detection was achieved by adding 50 μL of TMB One substrate solution (Kem-En-Tech, Denmark), which developed a blue color that turned yellow upon the addition of 50 μL of 3 M HCl. Absorbance at 450 nm was measured using a microplate reader (Sunrise, Tecan Group Ltd., Switzerland) reflecting the amount of galectin bound to the wells. Half-maximal inhibitory concentration (IC50) values were calculated by nonlinear regression (dose–response inhibition with variable slope) of sigmoidal curves using GraphPad Prism version 8.4.3 (GraphPad Software, USA).
(§2) Serially diluted ligands and NGPs were incubated with individual galectin species in the wells coated with asialofetuin (ASF). The remaining galectin bound to the immobilized ASF was detected using an anti-His6 antibody.

Gal-9 = biological target: T2, Gal-9 (Homo sapiens, UniProt O00182, A222P/DEL149-219); assay: as above; settings: competitive ELISA vs immobilized ASF; 0.5 μM Gal-9; at least quadruplicate
T2 construct: Full-length recombinant human galectins (Gal-1, Gal-3, Gal-4, Gal-8, and Gal-9) for ELISA assays; made in house; host or cells: E. coli Rosetta 2(DE3)pLysS
Description: as §1, §2

Gal-4 [1] = biological target: T3, Gal-4 (Homo sapiens, UniProt P56470); parameters: method as in previously published by us; settings: competitive ELISA vs immobilized ASF; footnote b; ref previously published by us; cited from earlier work
T3 construct: Full-length recombinant human galectins (Gal-1, Gal-3, Gal-4, Gal-8, and Gal-9) for ELISA assays; made in house; host or cells: E. coli Rosetta 2(DE3)pLysS
T3 sequence (P56470 1-323): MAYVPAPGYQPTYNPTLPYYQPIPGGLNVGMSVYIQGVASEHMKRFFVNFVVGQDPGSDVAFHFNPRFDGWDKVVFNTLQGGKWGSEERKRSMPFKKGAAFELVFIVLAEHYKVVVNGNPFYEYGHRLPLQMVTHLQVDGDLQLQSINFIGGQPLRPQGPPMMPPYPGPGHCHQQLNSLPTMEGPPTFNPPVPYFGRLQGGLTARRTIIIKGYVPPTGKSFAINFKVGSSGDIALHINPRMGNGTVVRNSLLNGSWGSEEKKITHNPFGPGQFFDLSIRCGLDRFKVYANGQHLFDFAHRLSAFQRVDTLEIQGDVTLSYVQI

Gal-1 = Gal-1 (Homo sapiens, UniProt P09382, C3S); assay: competitive ELISA, inhibition of galectin binding to immobilized asialofetuin
Description: as §1, §2

Gal-3 = Gal-3 (Homo sapiens, UniProt P17931); assay: as above
Description: as §1, §2

Gal-4 [2] = biological target: T3, Gal-4; assay: as above; settings: competitive ELISA vs immobilized ASF; 2.5 μM Gal-4; at least quadruplicate
Description: as §1, §2

Sequence of Gal-3 (P17931 whole entry): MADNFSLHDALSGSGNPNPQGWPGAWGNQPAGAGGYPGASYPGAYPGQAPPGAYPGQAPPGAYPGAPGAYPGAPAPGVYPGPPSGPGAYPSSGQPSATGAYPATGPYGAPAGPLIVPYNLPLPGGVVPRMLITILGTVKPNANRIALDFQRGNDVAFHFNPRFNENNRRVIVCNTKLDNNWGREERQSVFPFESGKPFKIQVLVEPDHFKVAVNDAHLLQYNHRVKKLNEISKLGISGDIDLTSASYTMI
T2 sequence (O00182 with tags, fused parts or gaps DEL149-219/A222P): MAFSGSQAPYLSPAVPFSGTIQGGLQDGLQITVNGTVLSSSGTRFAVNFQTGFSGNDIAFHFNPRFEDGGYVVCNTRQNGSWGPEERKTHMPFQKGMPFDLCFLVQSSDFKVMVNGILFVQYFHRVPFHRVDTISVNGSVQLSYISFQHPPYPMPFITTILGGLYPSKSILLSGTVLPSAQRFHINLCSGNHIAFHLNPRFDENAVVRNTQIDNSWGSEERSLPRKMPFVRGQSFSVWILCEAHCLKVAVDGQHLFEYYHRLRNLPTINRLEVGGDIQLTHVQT
Sequence of Gal-1 (P09382 whole entry C3S): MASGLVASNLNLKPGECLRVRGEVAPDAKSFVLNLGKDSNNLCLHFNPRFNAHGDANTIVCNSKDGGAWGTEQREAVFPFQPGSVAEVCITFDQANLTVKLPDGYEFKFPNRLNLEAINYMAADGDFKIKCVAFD

Structure (SMILES) | IC50 (Gal-8) | IC50 (Gal-9) | IC50 (Gal-4 [1]) | IC50 (Gal-1) | IC50 (Gal-3) | IC50 (Gal-4 [2]) | IC50 (Gal-3; read-out: IC50 Gal-3, Table S9, competitive ELISA vs immobilized ASF, […] Gal-3, unit inferred)
CC(C)(C)OC(=O)NCCNC(=S)N[C@@H]1O[C@H](CO)[C@@H](O[C@@H]2O[C@H](CO)[C@H](O)[C@H](O)[C@H]2O)[C@H](O)[C@H]1O [Compound 1, (tert-butoxycarbonylamino)ethylthioureidyl β-D-galactopyranosyl-(1→4)-β-D-glucopyranoside] | 2870 ± 470 µM | 2180 ± 670 µM | 2520 ± 180 µM | 286 ± 23 µM | 136 ± 18 µM |  | 
CC(=O)N[C@H]1[C@H](O[C@H]2[C@@H](O)[C@@H](CO)O[C@@H](O[C@H]3[C@H](O)[C@@H](O)[C@H](NC(=S)NCCNC(=O)OC(C)(C)C)O[C@@H]3CO)[C@@H]2O)O[C@H](CO)[C@@H](O)[C@@H]1O[C@@H]1O[C@H](CO)[C@H](O)[C@H](O)[C@H]1O [Compound 3, (tert-Butoxycarbonylamino)ethylthioureidyl β-D-galactopyranosyl-(1→3)-2-acetamido-2-deoxy-β-D-glucopyranosyl-(1→3)-β-D-galactopyranosyl-(1→4)-β-D-glucopyranoside] | 820 ± 140 µM | 230 ± 43 µM |  | > 500 µM | 15.2 ± 1 µM | 108 ± 16 µM | 
CC(=O)N[C@H]1[C@H](O[C@H]2[C@@H](O)[C@@H](CO)O[C@@H](O[C@H]3[C@H](O)[C@@H](O)[C@H](NC(=S)NCCNC(=O)OC(C)(C)C)O[C@@H]3CO)[C@@H]2O)O[C@H](CO)[C@@H](O[C@@H]2O[C@H](CO)[C@H](O)[C@H](O)[C@H]2O)[C@@H]1O [Compound 4, (tert-Butoxycarbonylamino)ethylthioureidyl β-D-galactopyranosyl-(1→4)-2-acetamido-2-deoxy-β-D-glucopyranosyl-(1→3)-β-D-galactopyranosyl-(1→4)-β-D-glucopyranoside] | 130 ± 30 µM | 170 µM and 168 µM | 620 ± 100 µM | 436 ± 41 µM | 7.3 ± 1.6 µM |  | 
CC(=O)N[C@H]1[C@H](O[C@H]2[C@@H](O)[C@@H](CO)O[C@@H](O[C@H]3[C@H](O)[C@@H](O)[C@H](NC(=S)NCCNC(=O)OC(C)(C)C)O[C@@H]3CO)[C@@H]2O)O[C@H](CO)[C@@H](O[C@@H]2O[C@H](CO)[C@H](O)[C@H](O)[C@H]2NC(C)=O)[C@@H]1O [Compound 5, (tert-Butoxycarbonylamino)ethylthioureidyl 2-acetamido-2-deoxy-β-D-galactopyranosyl-(1→4)-2-acetamido-2-deoxy-β-D-glucopyranosyl-(1→3)-β-D-galactopyranosyl-(1→4)-2-β-D-glucopyranoside] | 75 ± 9 µM | 326 ± 26 µM |  | 435 ± 102 µM | 2.2 ± 1.3 µM | 1620 ± 260 µM | 
CC(=O)N[C@@H]1[C@@H](O)[C@H](O[C@@H]2O[C@H](CO)[C@H](O)[C@H](O)[C@H]2O)[C@@H](CO)O[C@H]1NC(=S)NCCNC(=O)OC(C)(C)C [Compound 7, Galβ4GlcNAc-tBoc] | 18700 µM | 2840 ± 650 µM |  | 79 ± 9 µM | 47 ± 6 µM | 8630 ± 530 µM | 
CC(=O)N[C@@H]1[C@@H](O)[C@H](O[C@@H]2O[C@H](CO)[C@H](O)[C@H](O[C@@H]3O[C@H](CO)[C@@H](O)[C@H](O[C@@H]4O[C@H](CO)[C@H](O)[C@H](O)[C@H]4O)[C@H]3NC(C)=O)[C@H]2O)[C@@H](CO)O[C@H]1NC(=S)NCCNC(=O)OC(C)(C)C [Compound 9, (tert-Butoxycarbonylamino)ethylthioureidyl β-D-galactopyranosyl-(1→3)-2-acetamido-2-deoxy-β-D-glucopyranosyl-(1→3)-β-D-galactopyranosyl-(1→4)-2-acetamido-2-deoxy-β-D-glucopyranoside] | > 5000 µM | > 5000 µM |  | > 500 µM |  | 2380 ± 670 µM | 27 ± 4 µM
CC(=O)N[C@@H]1[C@@H](O)[C@H](O[C@@H]2O[C@H](CO)[C@H](O)[C@H](O[C@@H]3O[C@H](CO)[C@@H](O[C@@H]4O[C@H](CO)[C@H](O)[C@H](O)[C@H]4O)[C@H](O)[C@H]3NC(C)=O)[C@H]2O)[C@@H](CO)O[C@H]1NC(=S)NCCNC(=O)OC(C)(C)C [Compound 10, (tert-Butoxycarbonylamino)ethylthioureidyl β-D-galactopyranosyl-(1→4)-2-acetamido-2-deoxy-β-D-glucopyranosyl-(1→3)-β-D-galactopyranosyl-(1→4)-2-acetamido-2-deoxy-β-D-glucopyranoside] | 406 ± 46 µM | 52 ± 23 µM |  | 106 ± 7 µM | 12 ± 1 µM | 2390 ± 490 µM | 
CC(=O)N[C@@H]1[C@@H](O)[C@H](O[C@@H]2O[C@H](CO)[C@H](O)[C@H](O[C@@H]3O[C@H](CO)[C@@H](O[C@@H]4O[C@H](CO)[C@H](O)[C@H](O)[C@H]4NC(C)=O)[C@H](O)[C@H]3NC(C)=O)[C@H]2O)[C@@H](CO)O[C@H]1NC(=S)NCCNC(=O)OC(C)(C)C [Compound 11, (tert-Butoxycarbonylamino)ethylthioureidyl 2-acetamido-2-deoxy-β-D-galactopyranosyl-(1→4)-2-acetamido-2-deoxy-β-D-glucopyranosyl-(1→3)-β-D-galactopyranosyl-(1→4)-2-acetamido-2-deoxy-β-D-glucopyranoside] | 270 ± 85 µM | 260 ± 75 µM |  | 98 ± 22 µM | 2.7 ± 2.4 µM | 2010 ± 1000 µM | 
